The record followed here is article PMC10096453, “One-Pot Synthesis and Evaluation of Antioxidative Stress and Anticancer Properties of an Active Chromone Derivative” (Molecules, 2023).

The test system of the experiment is HeLa cells. The experiment can be described thus: Cell cycle analysis by flow cytometry. It counts as cell-based. Particulars: 24 h, 2f, 2j, quercetin at IC50, paclitaxel 5 μM. The protocol: The paclitaxel (5 μM) was performed as the positive control.
The treatment of HeLa cells and compounds was the same as in the apoptosis protocol. The cells were harvested for 200 μL and centrifuged at 600× g for 5 min and washed with PBS. The mixing cells were slowly added 200 μL of ice-cold 70% ethanol and incubated for at least 3 h at −20 °C. Cells were centrifuged and washed with PBS. Finally, cells were stained with 200 μL of Muse® cell cycle reagent and incubated at room temperature for 30 min in the dark. The cell was analyzed by flow cytometry (Guava Muse Cell Analyzer, Luminex, Austin, TX, USA).
In general terms: A flow cytometer gives signals particle by particle.

For the compound `CC(=O)O[C@H]1C(=O)[C@@]2(C)[C@H]([C@H](OC(=O)c3ccccc3)[C@]3(O)C[C@H](OC(=O)[C@H](O)[C@@H](NC(=O)c4ccccc4)c4ccccc4)C(C)=C1C3(C)C)[C@]1(OC(C)=O)CO[C@@H]1C[C@@H]2O` [Paclitaxel, paclitaxel, reference compound], the “Cell cycle phase arrest” value was “potent phase arrest of G2/M”, the “Cell population in G0/G1 phase” value is listed as 5.89 ± 0.18%, the “Cell population in G2/M phase” value is recorded as 89.12 ± 1.14 % and the “Cell population in S phase” value was 4.99 ± 0.96%.
